Results as given in US6670368B1, “Pyrimidine compounds with pharmaceutical activity” (AstraZeneca AB, priority 1999, dated 2003).

Target: T1, CDK4/Cyclin D1 (Homo sapiens, UniProt P11802)
T1 construct: made in house; host or cells: SF21 (Spodoptera frugiperda) insect cells, baculovirus co-infection, vector pVL1393
Assay: in vitro kinase assay (Scintillation Proximity Assay), incorporation of [γ-33-P]-ATP into GST-Retinoblastoma
Type: biochemical
Conditions: CDK4/Cyclin D1 partially-purified enzyme, GST-Rb substrate, 0.2 μM ATP, room temperature 60 minutes; read-out: CDK4 inhibitory activity IC50
Protocol: The compounds were tested in an in vitro kinase assay in 96 well format using Scintillation Proximity Assay (SPA-obtained from Amersham) for measuring incorporation of [γ-33-P]-Adenosine Triphosphate into a test substrate (GST-Retinoblastoma). In each well was placed the compound to be tested (diluted in DMSO and water to correct concentrations) and in control wells either p16 as an inhibitor control or DMSO as a positive control.
Approximately 0.5 μl of CDK4/Cyclin D1 partially-purified enzyme (amount dependent on enzyme activity) diluted in 25 μl incubation buffer was added to each well then 20 μl of GST-Rb/ATP/ATP33 mixture (containing 0.5 μg GST-Rb and 0.2 μM ATP and 0.14 μCi [γ-33-P]-Adenosine Triphosphate), and the resulting mixture shaken gently, then incubated at room temperature for 60 minutes. To each well was then added 150 μL stop solution containing (0.8 mg/well of Protein A-PVT SPA bead (Amersham)), 20 pM/well of Anti-Glutathione Transferase, Rabbit IgG (obtained from Molecular Probes), 61 mM EDTA and 50 mM HEPES pH 7.5 containing 0.05% sodium azide.
The plates were sealed with Topseal-S plate sealers, left for two hours then spun at 2500 rpm, 1124×g., for 5 minutes. The plates were read on a Topcount for 30 seconds per well. […]

T1 sequence (P11802 whole entry): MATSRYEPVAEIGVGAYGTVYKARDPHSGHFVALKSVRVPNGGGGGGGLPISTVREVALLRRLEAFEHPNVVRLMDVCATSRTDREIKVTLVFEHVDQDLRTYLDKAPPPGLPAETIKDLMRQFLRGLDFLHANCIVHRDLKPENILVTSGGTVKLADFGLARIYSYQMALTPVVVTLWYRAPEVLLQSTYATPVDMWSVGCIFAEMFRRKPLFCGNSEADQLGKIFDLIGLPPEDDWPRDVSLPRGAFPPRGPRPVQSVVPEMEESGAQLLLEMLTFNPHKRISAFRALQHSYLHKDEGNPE
T1 sequence (P24385 whole entry partner): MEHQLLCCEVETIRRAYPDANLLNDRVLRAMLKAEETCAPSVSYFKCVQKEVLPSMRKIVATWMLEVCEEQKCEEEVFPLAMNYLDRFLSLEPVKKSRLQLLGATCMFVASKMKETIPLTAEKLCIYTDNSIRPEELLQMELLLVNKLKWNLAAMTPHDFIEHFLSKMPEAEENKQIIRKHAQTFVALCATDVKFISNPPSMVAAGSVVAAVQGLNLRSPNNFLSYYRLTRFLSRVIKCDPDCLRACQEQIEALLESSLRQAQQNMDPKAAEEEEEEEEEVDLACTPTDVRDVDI

Cc1ccc(C)c(Oc2cc(Nc3ccc(OCC(O)CN(C)C)cc3)ncn2)c1 (stereo not shown) [Example 6]
IC50: 1200 nM
